Read-outs that look alike come from different tables or passages of the source. One block for each compound: values may come before it.
How the values were obtained:
USP30 = molecular target: T1, USP30 (Homo sapiens, UniProt Q70CQ3); test: USP30 biochemical IC50 assay (fluorescence polarisation)
T1 construct: purchased Boston Biochem E582
T1 sequence (Q70CQ3 57-517 limits assumed): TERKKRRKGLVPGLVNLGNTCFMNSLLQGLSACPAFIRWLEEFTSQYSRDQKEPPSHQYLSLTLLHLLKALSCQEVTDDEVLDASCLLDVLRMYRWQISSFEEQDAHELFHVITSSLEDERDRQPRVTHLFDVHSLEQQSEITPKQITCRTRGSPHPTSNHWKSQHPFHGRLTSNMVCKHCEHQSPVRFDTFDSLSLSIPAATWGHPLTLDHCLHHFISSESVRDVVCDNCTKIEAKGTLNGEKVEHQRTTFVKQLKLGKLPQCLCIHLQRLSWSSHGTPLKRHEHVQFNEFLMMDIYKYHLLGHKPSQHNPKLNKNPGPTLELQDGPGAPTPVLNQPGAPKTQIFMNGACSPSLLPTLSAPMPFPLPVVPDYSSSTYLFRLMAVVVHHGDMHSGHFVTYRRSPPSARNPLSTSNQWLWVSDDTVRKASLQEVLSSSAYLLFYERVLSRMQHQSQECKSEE
Experimental: Dilution plates were prepared at 21 times the final concentration (2100 μM for a final concentration of 100 μM) in 50% DMSO in a 96-well polypropylene V-bottom plate (Greiner #651201). A typical 8-point dilution series would be 100, 30, 10, 3, 1, 0.3, 0.1, 0.03 μM final. Reactions were performed in duplicate in black 384 well plates (small volume, Greiner 784076) in a final reaction volume of 21 μl. Either 1 μl of 50% DMSO or diluted compound was added to the plate. USP30 (Boston Biochem #E582) was diluted in reaction buffer (40 mM Tris, pH 7.5, 0.005% Tween 20, 0.5 mg/ml BSA, 5 mM beta-mercaptoethanol) to achieve a final assay concentration of 4 nM, and 10 μl of diluted USP30 was added to the compound. Enzyme and compound were incubated for 30 min at room temp. Reactions were initiated by the addition of 50 nM of TAMRA labelled peptide linked to ubiquitin via an iso-peptide bond as fluorescence polarisation substrate. Reactions were read immediately after addition of substrate and following a 2-hour incubation at room temperature. Readings were performed on a Pherastar Plus (BMG Labtech). λ Excitation 540 nm; Emission 590 nm.

UCHL1 = molecular target: T2, UCHL1 (Homo sapiens, UniProt P09936); test: DUB IC50 UCHL1; assay type: biochemical
T2 sequence (P09936 1-223): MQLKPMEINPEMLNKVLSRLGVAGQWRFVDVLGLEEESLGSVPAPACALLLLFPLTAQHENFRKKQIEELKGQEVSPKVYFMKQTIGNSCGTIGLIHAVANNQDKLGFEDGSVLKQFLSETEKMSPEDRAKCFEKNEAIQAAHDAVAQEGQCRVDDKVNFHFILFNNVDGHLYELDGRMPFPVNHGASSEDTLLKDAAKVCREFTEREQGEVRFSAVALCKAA

[1] = system: USP2, USP10, USP16, USP21, USP22, USP25, USP28; test: DUB IC50, seven DUBs; assay type: biochemical; settings: for DUB selectivity preference for USP30 v 7 DUBs: range over the seven DUBs
[2] = system: T3, USP2, USP10, USP16, USP21, USP22, USP25, USP28; test: DUB IC50, seven DUBs; assay type: biochemical; settings: range over the seven DUBs
T3 construct: DUB IC50 (μM) USP2, USP10, USP16, USP21, USP22, USP25, USP28; other: range over the seven DUBs

[3] = system: HCT116 human colorectal carcinoma cells; test: In vitro cytotoxicity (Cell Tox), alamarBlue; assay type: cell-based; settings: HCT-116, 96-hour continual compound exposure
Experimental: In Vitro Cytotoxicity (Cell Tox): Measured in HCT116 human colorectal carcinoma cells using alamarBlue™ as the assay endpoint. Compound cytotoxicity was measured over a period of 96-hour continual compound exposure.

hepatocyte = test: Hepatocyte clearance mouse; assay type: in vitro ADME; settings: mouse hepatocytes
Source text: (§1) log P: partition coefficient; lipophilicity measurement. log D: distribution co-efficient; lipophilicity measurement. TPSA: topological polar surface area. Turbidimetric solubility: Test compound solution prepared in DMSO diluted into aqueous buffer. Turbidimetry is used as the end-point by measuring absorbance at 620 nm. FaSSIF: simulated intestinal fluid in fasted state measured at pH 6.5. Hep Cl mouse: in vitro hepatocyte clearance in mouse cells. Hep Cl human: in vitro hepatocyte clearance in human cells. Plasma fu,p: The free fraction of a compound in plasma preparation determined by in vitro equilibrium dialysis. It is understood that only unbound (free) compound is capable of engaging with the target. Brain fu,br: The free fraction of a compound in brain homogenate preparation determined by in vitro equilibrium dialysis. It is understood that only unbound (free) compound is capable of engaging with the target. Clu: in vitro clearance. Clu as defined here is the scaled clearance, in turn calculated from the intrinsic clearance. The intrinsic clearance is the predicted clearance due to hepatic metabolic reactions, determined from incubation of a compound in a hepatocyte preparation. […] Cl in vivo clearance: Pharmacokinetic measurement of the volume of plasma (or any matrix) from which a substance is completely removed per unit time.

Mouse plasma stability = assay type: in vitro ADME; settings: read-out: Stability Mouse plasma t1/2
[4] = Plasma free fraction by equilibrium dialysis; assay type: in vitro ADME; settings: mouse plasma; read-out: Binding Mouse Plasma fu, p
Source text: as §1

TOM20 ubiquitylation = test: TOM20-ubiquitylation assay; assay type: cell-based, human; settings: antimycin A/oligomycin mitophagy trigger
Source text: Human cell lines can be challenged with mitochondrial depolarizing agents (ionophores (eg. CCCP, valinomycin), mitochondrial complex inhibitors (oligomycin, antimycin A)) to induce ubiquitylation of TOM20, which is then further promoted in the presence of USP30 inhibitors. TOM20 ubiquitylation is subsequently assessed through western blotting of the cell lysates, with TOM20 ubiquitylation adduct detection possible due to an 8 kDa molecule weight increase for each molecule of ubiquitin added, resulting in laddering of a TOM20 immunoreactive band. TOM20-ubiquitylation levels can be quantified using chemiluminescence densitometry of laddered immunoreactive bands.

[5] = system: cathepsins B, K, L, S and V; test: Cathepsin IC50, summary over B, K, L, S, V; assay type: biochemical; settings: K, L
[6] = system: T4, cathepsins B, K, L, S and V; test: Cathepsin IC50, summary over B, K, L, S, V; assay type: biochemical; settings: range over the five cathepsins
T4 construct: Cathepsin IC50 (μM) B, K, L, S, V; other: range over the five cathepsins

SMILES: N#Cc1ccc(-c2cnc(NC(=O)[C@H]3CCN(C#N)C3)s2)cc1OC(F)(F)F [B, reference compound]
IC50 (USP30; read-out: DUB IC50 (μM) USP30): 0.172 µM | IC50 (USP30; read-out: USP30 IC50): 0.172 µM | DUB selectivity preference for USP30 v UCHL1 (UCHL1): 4.5 | IC50 (UCHL1): 0.77 µM | fold more potent against USP30 than UCHL1 (UCHL1): 4.5 fold

SMILES: COC[C@H]1C[C@@H](NC(=O)c2ncc(-c3cccc(OC(F)(F)F)c3)o2)CN1C#N [Example 3, N-((3R,5R)-1-Cyano-5-(methoxymethyl)pyrrolidin-3-yl)-5-(3-(trifluoromethoxy)phenyl)oxazole-2-carboxamide]
fold more potent against USP30 than Reference Example A (USP30; biochemical assay): 9 fold | fold more potent against USP30 than Reference Example B (USP30; biochemical assay): 22 fold | fold more potent against USP30 than Reference Example C (USP30; biochemical assay): 39 fold | fold more potent against USP30 than Reference Example D (USP30; biochemical assay): 550 fold | IC50 (USP30; read-out: USP30 IC50): 0.008 µM | DUB selectivity preference for USP30 v 7 DUBs [1]: >37500 | IC50 [2]: > 300 µM | DUB selectivity preference for USP30 v UCHL1 (UCHL1): 37500 | IC50 (UCHL1): > 300 µM | EC50 [3]: 23.9 µM | Hepatocyte Cl mouse scaled Clu (hepatocyte): 97.4 mL/min/kg | half-life (Mouse plasma stability): > 120 min | fraction unbound [4]: 0.036 | TOM20-Ub 1.5-fold gain EC1.5x (μM) (TOM20 ubiquitylation): 0.210 (n = 1) μM

SMILES: CC1CC(C(=O)Nc2ncc(-c3ccccc3)s2)CN1C#N (stereo not drawn) [D, reference compound]
fold more potent against USP30 than UCHL1 (UCHL1): 1.5 fold

More lines, main results first:

fold more potent against USP30 than UCHL1 (UCHL1): 0.8 fold
SMILES: N#CN1CC[C@H](C(=O)Nc2ncc(-c3ccccc3)s2)C1 [C, reference compound]

IC50 [2]: 0.19 to 9.9 µM | IC50 [6]: 0.79 to 8.8 µM
SMILES: COc1cccc(-c2cc(C(=O)N[C@@H]3CCN(C#N)C3)on2)c1 [Reference Example A, reference compound]
fold more potent against USP30 than against each of the seven DUBs, at a minimum ([1]; USP2, USP10, USP16, USP21, USP22, USP25 and USP28): 2.7 fold | DUB selectivity preference for USP30 v 7 DUBs [1]: 2.7-141 | fold more potent against USP30 than against each of the cathepsins, at a minimum ([5]; cathepsins B, S and V): 11 fold | Selectivity preference for USP30 v cathepsins ([5]; range over cathepsins B, S, V): 11-126
